Tests used:
[1] = 30 mg BID, kidney allograft recipients; cited from earlier work
[2] = biological target: baculovirus-expressed ALK (Homo sapiens, UniProt Q9UM73); test: ALK kinase inhibition, TRF/ELISA; format: biochemical; conditions: read-out: ALK Potency
Method in brief: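 Eu-PT66 anti-phosphotyrosine TRF read-out measured phosphorylation of plate-bound GST-PLC-γ (coated at 10 μg/mL). The phosphorylation was driven by 30 ng/mL ALK for 15 minutes at 37° C.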

[3] = biological target: baculovirus-expressed JAK2 kinase (Homo sapiens, UniProt O60674); test: biochemical; conditions: 0.2 μM ATP; read-out: JAK2 Potency
baculovirus-expressed JAK2 kinase, sequence (O60674 whole entry): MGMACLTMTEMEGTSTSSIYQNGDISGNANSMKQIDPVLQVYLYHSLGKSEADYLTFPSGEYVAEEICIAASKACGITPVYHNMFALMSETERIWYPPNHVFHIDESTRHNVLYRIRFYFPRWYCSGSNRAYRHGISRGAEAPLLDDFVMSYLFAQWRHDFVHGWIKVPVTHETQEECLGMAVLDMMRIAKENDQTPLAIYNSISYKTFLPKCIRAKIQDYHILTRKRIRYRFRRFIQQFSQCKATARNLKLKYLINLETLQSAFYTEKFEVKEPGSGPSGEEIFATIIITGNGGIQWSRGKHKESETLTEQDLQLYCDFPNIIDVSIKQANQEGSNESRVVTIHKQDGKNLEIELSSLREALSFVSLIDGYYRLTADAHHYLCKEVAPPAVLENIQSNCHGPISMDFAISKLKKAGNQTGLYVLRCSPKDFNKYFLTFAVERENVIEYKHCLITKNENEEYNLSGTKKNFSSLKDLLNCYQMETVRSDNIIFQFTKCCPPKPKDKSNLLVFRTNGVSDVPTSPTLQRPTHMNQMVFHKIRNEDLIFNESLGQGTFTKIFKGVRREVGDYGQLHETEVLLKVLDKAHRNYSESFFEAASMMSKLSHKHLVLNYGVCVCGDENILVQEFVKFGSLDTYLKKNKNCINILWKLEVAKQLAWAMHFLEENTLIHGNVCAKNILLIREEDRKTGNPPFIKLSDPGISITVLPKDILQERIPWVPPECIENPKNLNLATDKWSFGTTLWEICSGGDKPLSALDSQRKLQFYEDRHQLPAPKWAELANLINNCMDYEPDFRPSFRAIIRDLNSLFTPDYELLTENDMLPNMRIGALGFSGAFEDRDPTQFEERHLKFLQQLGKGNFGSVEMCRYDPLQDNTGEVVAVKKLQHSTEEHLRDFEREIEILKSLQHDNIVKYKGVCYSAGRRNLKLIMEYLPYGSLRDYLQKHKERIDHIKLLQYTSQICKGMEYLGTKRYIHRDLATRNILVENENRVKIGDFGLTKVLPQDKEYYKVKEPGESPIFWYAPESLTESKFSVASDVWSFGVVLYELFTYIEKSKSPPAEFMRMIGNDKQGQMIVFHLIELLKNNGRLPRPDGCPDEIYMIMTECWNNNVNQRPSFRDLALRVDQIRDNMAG
Method in brief: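 IC50 derived by variable-slope sigmoidal fit of percent inhibition against log compound concentration. Baculovirus-expressed JAK2 (15 ng/mL) phosphorylated a plate-bound biotinylated 15-mer peptide for 20 min at room temperature; detection by time-resolved fluorescence.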

baculovirus-expressed ALK, sequence (Q9UM73 19-1620): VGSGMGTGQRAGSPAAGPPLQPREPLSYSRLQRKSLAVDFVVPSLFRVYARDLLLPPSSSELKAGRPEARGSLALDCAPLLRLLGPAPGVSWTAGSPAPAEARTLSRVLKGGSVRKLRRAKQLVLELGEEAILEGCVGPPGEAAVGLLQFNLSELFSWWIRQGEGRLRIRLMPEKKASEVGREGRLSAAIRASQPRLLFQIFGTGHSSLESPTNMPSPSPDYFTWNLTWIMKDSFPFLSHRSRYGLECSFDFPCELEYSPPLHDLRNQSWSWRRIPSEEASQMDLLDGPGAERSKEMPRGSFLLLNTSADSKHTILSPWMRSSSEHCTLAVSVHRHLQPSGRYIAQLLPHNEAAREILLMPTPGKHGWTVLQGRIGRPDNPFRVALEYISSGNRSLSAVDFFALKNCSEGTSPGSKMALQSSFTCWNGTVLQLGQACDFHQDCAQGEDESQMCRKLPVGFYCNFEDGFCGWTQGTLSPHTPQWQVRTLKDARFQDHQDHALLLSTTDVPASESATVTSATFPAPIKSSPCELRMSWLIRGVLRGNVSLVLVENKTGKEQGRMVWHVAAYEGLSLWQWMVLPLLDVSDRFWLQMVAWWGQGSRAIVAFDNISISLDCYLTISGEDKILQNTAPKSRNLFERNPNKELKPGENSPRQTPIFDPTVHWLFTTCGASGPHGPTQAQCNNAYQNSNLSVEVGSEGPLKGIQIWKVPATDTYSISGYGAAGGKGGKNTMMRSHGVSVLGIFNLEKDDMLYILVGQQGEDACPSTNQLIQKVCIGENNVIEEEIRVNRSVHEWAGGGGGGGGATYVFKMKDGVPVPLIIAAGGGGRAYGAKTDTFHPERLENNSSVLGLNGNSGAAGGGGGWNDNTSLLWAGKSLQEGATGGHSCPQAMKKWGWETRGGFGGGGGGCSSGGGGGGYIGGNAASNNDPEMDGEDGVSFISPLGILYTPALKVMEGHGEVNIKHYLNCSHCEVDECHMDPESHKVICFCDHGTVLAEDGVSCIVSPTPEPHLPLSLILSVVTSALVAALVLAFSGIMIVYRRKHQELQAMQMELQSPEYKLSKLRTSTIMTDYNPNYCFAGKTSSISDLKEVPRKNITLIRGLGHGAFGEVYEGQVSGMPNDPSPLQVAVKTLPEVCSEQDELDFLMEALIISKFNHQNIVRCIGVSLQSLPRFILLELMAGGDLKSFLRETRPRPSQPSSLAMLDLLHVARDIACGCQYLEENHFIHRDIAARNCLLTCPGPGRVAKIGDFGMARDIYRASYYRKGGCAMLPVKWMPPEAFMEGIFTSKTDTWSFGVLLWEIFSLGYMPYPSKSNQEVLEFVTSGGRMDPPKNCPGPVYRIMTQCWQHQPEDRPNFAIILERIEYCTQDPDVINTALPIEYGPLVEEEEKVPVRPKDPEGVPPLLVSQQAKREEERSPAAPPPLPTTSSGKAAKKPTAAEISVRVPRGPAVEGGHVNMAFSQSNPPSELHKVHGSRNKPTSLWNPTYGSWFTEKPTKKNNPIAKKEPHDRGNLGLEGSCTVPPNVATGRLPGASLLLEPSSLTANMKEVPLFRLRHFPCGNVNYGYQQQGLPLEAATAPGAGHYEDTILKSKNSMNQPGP

| Compound | subjects developed polyoma-associated nephropathy [1] | IC50 [2] | IC50 [3] | melting point |
| --- | --- | --- | --- | --- |
| C[C@@H]1CCN(C(=O)CC#N)C[C@@H]1N(C)c1ncnc2[nH]ccc12 [CP-690,550] | 20% |  |  |  |
| NC(=O)[C@@H]1[C@H](Nc2c(Br)cnc3[nH]c(-c4cncnc4)nc23)[C@H]2C=C[C@@H]1C2 [Compound CVII, (1S,2S,3R,4R)-3-(6-Bromo-2-pyrimidin-5-yl-3H-imidazo[4,5-b]pyridin-7-ylamino)-bicyclo[2.2.1]hept-5-ene-2-carboxylic acid amide] |  | 100 to 1000 nM | < 100 nM | > 300 °C |
| COc1ccc(-c2nc3c(N[C@H]4[C@@H](C(N)=O)[C@@H]5C=C[C@H]4C5)c(Cl)cnc3[nH]2)c(C2CCN(C[C@@H](C)O)CC2)c1 [Compound XXXI] |  | 1000 to 10000 nM | 100 to 1000 nM | 186 to 187 °C |
| COc1cc(CN2CCN(C[C@@H](C)O)CC2)ccc1-c1nc2c(N[C@H]3[C@@H](C(N)=O)[C@@H]4C=C[C@H]3C4)c(Cl)cnc2[nH]1 [Compound XLIV, (1S,2S,3R,4R)-3-(6-Chloro-2-{4-[4-((R)-2-hydroxypropyl)-piperazin-1-ylmethyl]-2-methoxyphenyl}-3H-imidazo[4,5-b]pyridine-7-ylamino)-bicyclo[2.2.1]hept-5-ene-2-carboxylic acid amide] |  | < 100 nM | < 100 nM | 157 to 159 °C |
| CC(C)(C)OC(=O)N1CCCC(c2nc3c(N[C@H]4[C@@H](C(N)=O)[C@@H]5C=C[C@H]4C5)c(Br)cnc3[nH]2)C1 (stereo partly drawn) [Compound LXXXII, 3-[6-Bromo-7-((1R,2R,3S,4S)-3-carbamoyl-bicyclo[2.2.1]hept-5-en-2-ylamino)-3H-imidazo[4,5-b]pyridin-2-yl]-piperidine-1-carboxylic acid tert-butyl] |  | 100 to 1000 nM | 100 to 1000 nM | 172 to 177 °C |
| NC(=O)[C@@H]1[C@H](Nc2c(Cl)cnc3[nH]c(-c4ccc5c(c4)CCC4(CCNCC4)O5)nc23)[C@H]2C=C[C@@H]1C2 [Compound CXV, (1S,2S,3R,4R)-3-[(6-chloro-2-spiro[chromane-2,4′-piperidine]-6-yl-3H-imidazo[4,5-b]pyridin-7-yl)amino]bicyclo[2.2.1]hept-5-ene-2-carboxamide] |  | < 100 nM | < 100 nM | > 250 °C |
